Results: patent US11780845B2 (Relay Therapeutics, Inc., priority 2019, dated 2023)

test system: SNU-16; assay: Cell SNU-16 assay; type: cell-based; conditions: Homo sapiens, SNU-16, SNU-16 cells

Row | IC50 | Compound
1 | 1 to 100 µM | C=CC(=O)N1CCC(c2c(-c3ccc(Oc4cccc(C)n4)cc3)c3c(N)ncnc3n2C)C1(C)C (stereo not drawn) [Example 844]
2 | 1 to 100 µM | C=C(C)C(=O)Nc1ccc(-c2c(-c3cccc(O)c3)c3c(N)ncnc3n2C)cc1 [Example 1298]
3 | ≤ 0.1 µM | C=CC(=O)Nc1cccc(-c2c(C3=CC[C@H](C(=O)N4CCCC4)CC3)c3c(N)ncnc3n2C)c1 [Example 1018]
4 | 0.25 to 1 µM | Cc1ccnc(Oc2ccc(-c3c(-c4ccc(NCC#N)cc4)n(C)c4ncnc(N)c34)cc2F)n1 [Example 1266]
5 | ≤ 0.1 µM | C#Cc1ncc(-c2c(-c3ccc(Oc4nccc(C)n4)cc3)c3c(N)ncnc3n2C)cc1C#N [Example 1188]
6 | ≤ 0.1 µM | C#Cc1cc(C)c(-c2c(C3=CC[C@@H](C(=O)N4CCC[C@H]4C#N)CC3)c3c(N)ncnc3n2C)c(C)n1 (atropisomer, axis not shown) [Example 1471]
7 | 0.1 to 0.25 µM | C=CC(=O)N1CCc2ccc(-c3c(-c4ccc(Oc5nccc(C)n5)cc4)c4c(N)ncnc4n3C)cc2C1 [Example 916]
8 | ≤ 0.1 µM | C#Cc1ccc(-c2c(C3=CC[C@H](C(=O)N4CCC[C@H]4COC)CC3)c3c(N)ncnc3n2C)c(C)n1 (single isomer, unassigned) [Example 1204]
9 | ≤ 0.1 µM | C=Cc1ncc(-c2ccc(-c3c(-c4ccc(Oc5nccc(C)n5)cc4)c4c(N)ncnc4n3C)cc2)s1 [Example 984]
10 | 0.25 to 1 µM | Cc1ccnc(Oc2ccc(-c3c(-c4ccc(-c5cnc(C#N)o5)cc4)n(C)c4ncnc(N)c34)cc2)n1 [Example 915]
11 | ≤ 0.1 µM | C=C(C)C(=O)Nc1ccc(-c2c(C3=CC[C@@H](C(=O)N4CCCC45COC5)CC3)c3c(N)ncnc3n2C)c(F)c1 [Example 1011]
12 | 1 to 100 µM | C=Cc1ccc(-c2c(-c3ccccc3)c3c(N)ncnc3n2C)cn1 [Example 1194]
13 | ≤ 0.1 µM | C#Cc1cc(OC)c(-c2c(-c3ccc(C(=O)NCC4(F)CCC4)c(OC)c3)c3c(C)ncnc3n2C)cn1 [Example 1457]
14 | ≤ 0.1 µM | C=C1CCN(c2ccc(-c3c(C4=CC[C@@H](C(=O)N5CCCC5)CC4)c4c(C)ncnc4n3C)c(Cl)c2)C1=O (single isomer, unassigned) [Example 1140]
15 | 1 to 100 µM | C#C[C@H]1CCCN1C(=O)[C@H]1CC=C(c2c(-c3ccc(NC(=O)C(=C)C)cc3)n(C)c3ncnc(N)c23)CC1 (single isomer, unassigned) [Example 950]
16 | ≤ 0.1 µM | C=CC(=O)N1CCC(c2c(-c3ccc(N4CCCC4)c(C(F)(F)F)c3)c3c(N)ncnc3n2C)C1 (stereo not drawn) [Example 800]
17 | 0.25 to 1 µM | C=CC(=O)N1CC(c2c(-c3ccc(Oc4cccc(C)n4)cc3)c3c(N)ncnc3n2C)C[C@@H]1CO (stereo partly drawn) [Example 819]
18 | 0.25 to 1 µM | C=C(C)C(=O)Nc1ccc(-c2c(C3=CCN(C(=O)C4CCCC4)CC3)c3c(N)ncnc3n2C)cc1 [Example 922]
19 | ≤ 0.1 µM | C=C(C)C(=O)Nc1ccc(-c2c(C3=CC[C@@H](C(=O)N4CCCC4)CC3)c3c(N)ncnc3n2C)c(C)c1 (single isomer, unassigned) [Example 1035]
20 | ≤ 0.1 µM | C#Cc1ccc2c(n1)OCCn1c-2c(-c2ccc(Oc3nccc(C)n3)c(F)c2)c2c(N)ncnc21 [Example 1495]
21 | 0.1 to 0.25 µM | C#C[C@@H]1CCCN1C(=O)[C@@H]1CC=C(c2c(-c3ccc(NC(=O)C(=C)C)cc3)n(C)c3ncnc(N)c23)CC1 (single isomer, unassigned) [Example 951]
22 | 0.25 to 1 µM | C=C(C)C(=O)Nc1ccc(-c2c(C3=CC[C@H](C(=O)N4CCCC45COC5)CC3)c3c(N)ncnc3n2C)c(C)c1 (single isomer, unassigned) [Example 1029]
23 | ≤ 0.1 µM | C=C(C)C(=O)Nc1ccc(-c2c(-n3ccc(C(=O)N4CCCC4)cc3=O)c3c(N)ncnc3n2C)cc1 [Example 898]
24 | 1 to 100 µM | C=C(C)C(=O)Nc1ccc(-c2c(-c3ccc(C(=O)NCC(F)(F)F)cc3)c3c(N)ncnn3c2CO)cc1 [Example 832]
25 | 1 to 100 µM | C=C(C)C(=O)Nc1ccc(-c2[nH]c3ncnc(N)c3c2-c2ccc(Oc3ncc(F)cn3)c(F)c2)cc1 [Example 815]
26 | ≤ 0.1 µM | C#Cc1cc(C)c(-c2c(-c3ccc(Oc4nccc(C)n4)c(F)c3)c3c(Cl)ncnc3n2C)cn1 [Example 1356]
27 | ≤ 0.1 µM | C#Cc1ccc2cc(-c3c(-c4ccc(Oc5nccc(C)n5)c(F)c4)c4c(N)ncnc4n3C)ccc2n1 [Example 1405]

biological target: FGFR2 (Homo sapiens (Human), UniProt P21802); assay: Biochemical FGFR2 Caliper assay; conditions: not given
Sequence (P21802 22-821): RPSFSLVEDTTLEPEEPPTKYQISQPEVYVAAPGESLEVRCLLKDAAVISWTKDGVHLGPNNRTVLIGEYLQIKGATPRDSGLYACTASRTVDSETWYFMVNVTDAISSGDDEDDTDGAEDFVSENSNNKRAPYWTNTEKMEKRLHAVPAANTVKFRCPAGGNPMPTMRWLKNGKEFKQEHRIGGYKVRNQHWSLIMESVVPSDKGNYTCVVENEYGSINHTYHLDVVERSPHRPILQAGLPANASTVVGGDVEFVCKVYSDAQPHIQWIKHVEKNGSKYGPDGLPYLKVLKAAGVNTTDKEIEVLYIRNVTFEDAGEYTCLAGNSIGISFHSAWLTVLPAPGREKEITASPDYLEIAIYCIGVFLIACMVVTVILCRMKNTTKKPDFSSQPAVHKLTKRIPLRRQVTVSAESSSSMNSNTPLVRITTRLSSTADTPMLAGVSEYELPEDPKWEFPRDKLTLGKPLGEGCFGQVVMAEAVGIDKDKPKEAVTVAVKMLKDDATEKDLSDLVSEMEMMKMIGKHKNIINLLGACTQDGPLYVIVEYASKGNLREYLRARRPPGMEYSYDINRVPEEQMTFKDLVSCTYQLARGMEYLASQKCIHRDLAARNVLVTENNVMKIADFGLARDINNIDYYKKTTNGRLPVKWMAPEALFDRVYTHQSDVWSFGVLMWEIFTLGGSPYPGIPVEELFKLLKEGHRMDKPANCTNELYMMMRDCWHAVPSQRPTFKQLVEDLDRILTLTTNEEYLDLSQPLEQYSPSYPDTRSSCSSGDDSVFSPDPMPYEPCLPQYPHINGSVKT

Row | IC50 | Compound
28 | 1 to 100 µM | C=CC(=O)N1CCC(c2c(-c3ccc(Oc4cccc(C)n4)cc3)c3c(N)ncnc3n2C)C1(C)C (stereo not drawn) [Example 844]
29 | 0.25 to 1 µM | C=C(C)C(=O)Nc1ccc(-c2c(-c3cccc(O)c3)c3c(N)ncnc3n2C)cc1 [Example 1298]
30 | < 0.1 µM | C=CC(=O)Nc1cccc(-c2c(C3=CC[C@H](C(=O)N4CCCC4)CC3)c3c(N)ncnc3n2C)c1 [Example 1018]
31 | 1 to 100 µM | Cc1ccnc(Oc2ccc(-c3c(-c4ccc(NCC#N)cc4)n(C)c4ncnc(N)c34)cc2F)n1 [Example 1266]
32 | < 0.1 µM | C#Cc1ncc(-c2c(-c3ccc(Oc4nccc(C)n4)cc3)c3c(N)ncnc3n2C)cc1C#N [Example 1188]
33 | < 0.1 µM | C#Cc1cc(C)c(-c2c(C3=CC[C@@H](C(=O)N4CCC[C@H]4C#N)CC3)c3c(N)ncnc3n2C)c(C)n1 (atropisomer, axis not shown) [Example 1471]
34 | 1 to 100 µM | C=CC(=O)N1CCc2ccc(-c3c(-c4ccc(Oc5nccc(C)n5)cc4)c4c(N)ncnc4n3C)cc2C1 [Example 916]
35 | < 0.1 µM | C#Cc1ccc(-c2c(C3=CC[C@H](C(=O)N4CCC[C@H]4COC)CC3)c3c(N)ncnc3n2C)c(C)n1 (single isomer, unassigned) [Example 1204]
36 | < 0.1 µM | C=Cc1ncc(-c2ccc(-c3c(-c4ccc(Oc5nccc(C)n5)cc4)c4c(N)ncnc4n3C)cc2)s1 [Example 984]
37 | 1 to 100 µM | Cc1ccnc(Oc2ccc(-c3c(-c4ccc(-c5cnc(C#N)o5)cc4)n(C)c4ncnc(N)c34)cc2)n1 [Example 915]
38 | < 0.1 µM | C=C(C)C(=O)Nc1ccc(-c2c(C3=CC[C@@H](C(=O)N4CCCC45COC5)CC3)c3c(N)ncnc3n2C)c(F)c1 [Example 1011]
39 | 1 to 100 µM | C=Cc1ccc(-c2c(-c3ccccc3)c3c(N)ncnc3n2C)cn1 [Example 1194]
40 | 0.1 to 0.25 µM | C#Cc1cc(OC)c(-c2c(-c3ccc(C(=O)NCC4(F)CCC4)c(OC)c3)c3c(C)ncnc3n2C)cn1 [Example 1457]
41 | < 0.1 µM | C=C1CCN(c2ccc(-c3c(C4=CC[C@@H](C(=O)N5CCCC5)CC4)c4c(C)ncnc4n3C)c(Cl)c2)C1=O (single isomer, unassigned) [Example 1140]
42 | 1 to 100 µM | C#C[C@H]1CCCN1C(=O)[C@H]1CC=C(c2c(-c3ccc(NC(=O)C(=C)C)cc3)n(C)c3ncnc(N)c23)CC1 (single isomer, unassigned) [Example 950]
43 | < 0.1 µM | C=CC(=O)N1CCC(c2c(-c3ccc(N4CCCC4)c(C(F)(F)F)c3)c3c(N)ncnc3n2C)C1 (stereo not drawn) [Example 800]
44 | 0.25 to 1 µM | C=CC(=O)N1CC(c2c(-c3ccc(Oc4cccc(C)n4)cc3)c3c(N)ncnc3n2C)C[C@@H]1CO (stereo partly drawn) [Example 819]
45 | 0.25 to 1 µM | C=C(C)C(=O)Nc1ccc(-c2c(C3=CCN(C(=O)C4CCCC4)CC3)c3c(N)ncnc3n2C)cc1 [Example 922]
46 | < 0.1 µM | C=C(C)C(=O)Nc1ccc(-c2c(C3=CC[C@@H](C(=O)N4CCCC4)CC3)c3c(N)ncnc3n2C)c(C)c1 (single isomer, unassigned) [Example 1035]
47 | < 0.1 µM | C#Cc1ccc2c(n1)OCCn1c-2c(-c2ccc(Oc3nccc(C)n3)c(F)c2)c2c(N)ncnc21 [Example 1495]
48 | 0.25 to 1 µM | C#C[C@@H]1CCCN1C(=O)[C@@H]1CC=C(c2c(-c3ccc(NC(=O)C(=C)C)cc3)n(C)c3ncnc(N)c23)CC1 (single isomer, unassigned) [Example 951]
49 | 1 to 100 µM | C=C(C)C(=O)Nc1ccc(-c2c(C3=CC[C@H](C(=O)N4CCCC45COC5)CC3)c3c(N)ncnc3n2C)c(C)c1 (single isomer, unassigned) [Example 1029]
50 | < 0.1 µM | C=C(C)C(=O)Nc1ccc(-c2c(-n3ccc(C(=O)N4CCCC4)cc3=O)c3c(N)ncnc3n2C)cc1 [Example 898]
51 | 1 to 100 µM | C=C(C)C(=O)Nc1ccc(-c2c(-c3ccc(C(=O)NCC(F)(F)F)cc3)c3c(N)ncnn3c2CO)cc1 [Example 832]
52 | 0.25 to 1 µM | C=C(C)C(=O)Nc1ccc(-c2[nH]c3ncnc(N)c3c2-c2ccc(Oc3ncc(F)cn3)c(F)c2)cc1 [Example 815]
53 | < 0.1 µM | C#Cc1cc(C)c(-c2c(-c3ccc(Oc4nccc(C)n4)c(F)c3)c3c(Cl)ncnc3n2C)cn1 [Example 1356]
54 | < 0.1 µM | C#Cc1ccc2cc(-c3c(-c4ccc(Oc5nccc(C)n5)c(F)c4)c4c(N)ncnc4n3C)ccc2n1 [Example 1405]
